Measured values reported in patent US9273319B2, “Molecular switches and methods for making and using the same” (The Johns Hopkins University, priority 2002, dated 2016).
In brackets after ≈: the same amount, converted by molar mass.

Tests used:
[1] = target: T1, T164-165 β-lactamase: maltose binding protein (MBP) fusion (Escherichia coli, UniProt P0AEX9, INS191[…]); experiment: Effect of sugars on the T164-165 fusion's hydrolysis of nitrocefin (FIG. 8); format: biochemical, E. coli; conditions: 150 μM nitrocefin, 5 mM of the indicated sugar
T1 construct: made in house; host or cells: E. coli (library selected in malE auxotroph PM9F'; derivative of plasmid pDIMC8-Mal, IPTG-inducible lac promoter)
Method: The fusion comprises an insertion of β-lactamase amino acid sequences into an MBP acceptor polypeptide with a tandem duplication of amino acids 164-165 of MBP at the insertion site. The velocity of nitrocefin hydrolysis with 150 μM nitrocefin and 5 mM of the indicated sugars was compared to the velocity without any sugar. […] All sugars known to bind to wildtype MBP and induce a conformational change (maltose, maltotriose and maltohexose) increase the rate of hydrolysis by approximately 40%.
Although MBP can bind many other linear maltodextrins, cyclodextrins and reduced or oxidized variants thereof, only those ligands which, induce a conformational change in MBP (Hall, et al. (1997) J. Biol. Chem. 272(28): 17605-17609; Ball, et al. (1997) J. Biol. Chem. 272(28): 17610-17614) behaved as a switch (see, FIG. 8).

DH5α/pDIMC8-Mal = experiment: MIC for ampicillin on LB plates; format: cell-based, E. coli; conditions: Escherichia coli
Description: The E. coli […] was cloned into plasmid pDIMC8 (Ostermeier and Benkovic, 1999, Nat Biotechnol. 17:1205-1209) under control of the IPTG inducible lac promoter to create plasmid […].

| Molecule | increase of rate of nitrocefin hydrolysis compared to velocity without any sugar [1] | MIC (DH5α/pDIMC8-Mal) |
| --- | --- | --- |
| OC[C@H]1O[C@H](O[C@H]2[C@H](O)[C@@H](O)C(O)O[C@@H]2CO)[C@H](O)[C@@H](O)[C@@H]1O (mixture of isomers) [maltose] | approximately 40% | – |
| CC1(C)S[C@@H]2[C@H](NC(=O)[C@H](N)c3ccccc3)C(=O)N2[C@H]1C(=O)O [ampicillin] | – | 30 to 35 µg/mL (≈ 85.9 to 100 µM) |
| OC[C@@H](O)[C@@H](O[C@H]1O[C@H](CO)[C@@H](O)[C@H](O)[C@H]1O)[C@H](O)[C@@H](O)CO [maltitol] | did not have a significant effect | – |
| OC[C@H]1O[C@H](O[C@H]2[C@H](O)[C@@H](O)[C@@H](O[C@H]3[C@H](O)[C@@H](O)[C@@H](O[C@H]4[C@H](O)[C@@H](O)[C@@H](O[C@H]5[C@H](O)[C@@H](O)[C@@H](O[C@H]6[C@H](O)[C@@H](O)C(O)O[C@@H]6CO)O[C@@H]5CO)O[C@@H]4CO)O[C@@H]3CO)O[C@@H]2CO)[C@H](O)[C@@H](O)[C@@H]1O (stereo partly shown) [maltohexose] | approximately 40% | – |
| OC[C@H]1O[C@@](CO)(O[C@H]2O[C@H](CO)[C@@H](O)[C@H](O)[C@H]2O)[C@@H](O)[C@@H]1O [sucrose] | did not have a significant effect | – |
| OC[C@H]1O[C@@H]2O[C@H]3[C@H](O)[C@@H](O)[C@@H](O[C@H]4[C@H](O)[C@@H](O)[C@@H](O[C@H]5[C@H](O)[C@@H](O)[C@@H](O[C@H]6[C@H](O)[C@@H](O)[C@@H](O[C@H]7[C@H](O)[C@@H](O)[C@@H](O[C@H]8[C@H](O)[C@@H](O)[C@@H](O[C@H]1[C@H](O)[C@H]2O)O[C@@H]8CO)O[C@@H]7CO)O[C@@H]6CO)O[C@@H]5CO)O[C@@H]4CO)O[C@@H]3CO [β-cyclodextrin] | did not have a significant effect | – |
| maltotriose | approximately 40% | – |
